What is called zone of inhibition is the extent of the growth-free halo in a diffusion test.

The source of these data is patent US12421187B2, “Dihydrofolate synthase (DHFS) inhibiting agents and methods of making and using same” (Washington Univeristy, priority 2022, dated 2025).

Converted amounts (≈) assume the structure as drawn. “Also recorded” adds a separate entry of the source. Where two headings read alike, the source gives them in different places.

One test relates to E. coli ATC 25922. The test is described as follows: Agar diffusion antibacterial susceptibility assay. The test is classed as cell-based. To be noted: for zone of inhibition at 3520 µg/mL / zone of inhibition at 15000 µg/mL: Escherichia coli; for zone of inhibition at 15000 µg/mL: 15 mg/mL in DMSO. How it is done: Inhibitor 4.10 was also used alongside sulfamethoxazole and trimethoprim and in combination with sulfamethoxazole and trimethoprim respectively, in an agar diffusion antibacterial susceptibility assay (see e.g., FIG. 41 and TABLE 11).
An overnight culture of E. coli ATC 25922 was grown in 5 mL of LB broth. 22 g of Mueller Hinton II broth powder and 15 g of agar were dissolved in 1 L of dd-H2O and autoclaved. The MH II agar broth was cooled to 47° C. and 35 mL of MH II agar broth was inoculated with 100 μL of OD600=0.1 E. coli from the overnight culture. The inoculated agar was plated and once cool enough, 10 wells were cut out using a vacuum. Each well was filled with 50 μL DMSO solutions as below and the plates were left in an incubator at 37° C. for 18 h. The zones of inhibition were measured for each well.

A further test relates to E. coli. The experiment in a line: Whole cell antibacterial susceptibility test, bacterial growth curves in 96-well plate. The test is classed as cell-based. How it is done:
Bacterial growth curves were determined for E. coli using two compounds—inhibitor 4.10 and trimethoprim (positive control). A 96-well plate format was used to achieve serial dilution of the test compounds and included a DMSO control to simulate the concentration of DMSO required to solubilize the test compounds in the growth medium (not shown).

In the next test the target is T1, DHFS (Escherichia coli, UniProt P08192).
T1 construct: made in house; host or cells: E. coli BL21 (given for HPPK; the other enzymes 'in the same manner')
T1 sequence (P08192 whole entry): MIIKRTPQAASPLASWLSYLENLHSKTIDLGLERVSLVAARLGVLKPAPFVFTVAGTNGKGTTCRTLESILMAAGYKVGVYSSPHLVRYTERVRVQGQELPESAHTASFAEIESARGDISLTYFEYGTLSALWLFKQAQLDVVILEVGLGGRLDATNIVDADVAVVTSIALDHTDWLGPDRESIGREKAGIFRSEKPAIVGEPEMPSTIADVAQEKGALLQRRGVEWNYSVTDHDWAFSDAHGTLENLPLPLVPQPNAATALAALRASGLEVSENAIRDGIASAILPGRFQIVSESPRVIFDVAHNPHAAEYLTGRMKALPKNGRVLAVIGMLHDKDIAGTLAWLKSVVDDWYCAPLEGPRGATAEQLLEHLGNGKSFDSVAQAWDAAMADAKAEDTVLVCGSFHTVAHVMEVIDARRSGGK
The experiment in a line: Protein mass spectrometry of DHFS incubated with inhibitor (covalent adduct search). To be noted: 0, 40, 400 μM inhibitor, 20 μM DHFS, 37° C., 1 hour. Details: species or system E. coli. An excerpt:
If DHFS is indeed phosphorylating the 3-hydroxyl group of the 3-HβL warhead, then why was it not detected by LCMS analysis? The possibility was considered that the higher concentrations of compound 4.10 resulting in 100% DHFS inhibition might be consistent with covalent modification of the enzyme by the inhibitor. This could happen by a variety of different mechanisms including the canonical β-lactam suicide inhibition mechanism through acylation of nucleophilic amino acid side chains. However, there is a potentially novel mechanism at play when considering the reactivity of an activated benzylic position of para-aniline derivatives. The presence of a leaving group at the benzylic position of para-anilines results in the formation of reactive quinone-imine-methide species. If the 3-hydroxy group of inhibitor 4.10 is phosphorylated in the DHFS active site, it could serve as a leaving group leading to spontaneous formation of a quinone-imine-methide that might react with nearby amino acid side chains. This transformation could also take place within the mass spec, making detection of the phosphorylated inhibitor impossible (see e.g., FIG. 39). […] The LCMS samples were also analyzed for the presence of a reaction product between the 3-HβL and L-Glu, but no masses which could match this description were found. […]

Test [1] concerns the target T2, dihydrofolate synthetase (DHFS) (Escherichia coli, UniProt P08192).
T2 construct: made in house; host or cells: E. coli BL21 (given for HPPK; the other enzymes 'in the same manner')
The test is described as follows: DHFS steady state kinetics inhibition assay (PK/LDH coupled, absorbance at 340 nm, LCMS of product). The test is classed as biochemical, E. coli. The note with it: for DHFS product detected by LCMS of the reaction mixtures: higher inhibitor concentrations, FIG. 38A-38B. An excerpt:
With a suitable DHFS substrate in hand (THFA), conditions to measure the rate of DHFS action were investigated. […] Given none of the substrates or cofactors of DHFS (see e.g., FIG. 19) would be suitable for absorbance change detection, a coupled enzyme reaction with pyruvate kinase/lactate dehydrogenase (PK/LDH) was chosen. In the presence of ADP (in this case produced by DHFS), PK would convert phosphoenolpyruvate (PEP) to pyruvate, reforming ATP in the process (see e.g., FIG. 20A). The pyruvate would then be reduced by LDH in a NADH dependent manner (see e.g., FIG. 20B). The oxidation of NADH to NAD^+ would cause a decrease in absorbance at 340 nm, which can be measured as a rate of DHFS activity as long as the PK/LDH process was not the rate limiting step of the pathway from THFA to NAD^+.
THFA and its associated cofactors (L-Glu, ATP) were dissolved in degassed buffer solution (pH=7.5) to reconstitute DHFS activity with coupling to PK/LDH activity in the presence of excess cosubstrates (PEP, NADH) (see e.g., FIG. 24A). The optical absorbance at 340 nm was measured over time and a steady-state approximation of DHFS rate (7.18 E-5 abs/s) was determined (see e.g., FIG. 24B). Once the reaction had progressed for 20 minutes, 1 M HCl was added to quench the reaction and KCl+MeOH was added to agglutinate the protein and solubilize the pterin-containing metabolites. The vials were heated for 1 h at 70° C. and centrifuged to remove precipitated enzymes. The supernatant solution was spiked with a fixed concentration of Fmoc-alanine as an internal standard for LCMS analysis.
DHFS Steady State Kinetics Inhibition Assay
Stock solutions of all reagents were made using 100 mM Tris-buffer (pH=7.5) an stored in fractions in a −80° C. freezer until use. 1500 μL of a stock solution containing everything (in appropriate amounts to maintain the final concentration calculations for 150 total μL well volume) in the table above except the DHFS and the Tris Buffer+inhibitor was made. Solutions of the Tris Buffer+inhibitor were made so as to achieve final inhibitor concentrations as below. The final concentrations of inhibitor can be adjusted as necessary.
Each necessary well of a quartz 96-well plate was flushed with argon then filled (in triplicate) with 69.75 μL of stock solution and 75.75 μL of Tris Buffer+Inhibitor solution. The quartz plate was incubated at 37° C. for 10 minutes then 4.5 μL of DHFS stock solution was quickly added to each well except well 6, to which 4.5 μL of Tris-buffer was added. The quartz plate was put in a plate reader at 37° C. and the optical absorbance at 340 nm was read every 10 seconds for 20 min. The apparent reaction rate for absorbance decrease was measured from between 0-5 min. Each well was combined with their triplicate partners and the solutions were centrifuge filtered through a molecular weight cutoff (MWCO) to remove any enzymes. The solutions were spiked with enough Fmoc-ala to bring the final concentration to 50 μM (moc-ala then run on an LCMS with single ion monitoring methods to detect the various oxidation states of THEA and Glu-THFA.
An alternative method is as follows: After the 20-minute optical absorbance reading, the triplicate solutions were combined then diluted with 200 μL MeOH and an amount of KCl in H2O to bring the final concentration of KCl to 20 mM. The solutions were then incubated at 70° C. for 1 h. […]

In test [2] the target is T3, dihydropteroate synthase (DHPS) (Escherichia coli, UniProt P0AC13).
T3 construct: made in house; host or cells: E. coli BL21 (given for HPPK; the other enzymes 'in the same manner')
T3 sequence (P0AC13 whole entry): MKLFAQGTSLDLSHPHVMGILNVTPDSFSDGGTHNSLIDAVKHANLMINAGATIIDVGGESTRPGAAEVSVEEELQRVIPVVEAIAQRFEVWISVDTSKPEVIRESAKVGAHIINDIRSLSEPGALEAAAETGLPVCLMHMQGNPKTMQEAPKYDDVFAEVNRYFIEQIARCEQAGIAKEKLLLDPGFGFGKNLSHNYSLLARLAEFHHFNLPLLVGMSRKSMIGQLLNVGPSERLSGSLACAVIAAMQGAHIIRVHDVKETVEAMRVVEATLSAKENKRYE
The experiment in a line: HPPK/DHPS/DHFR steady state kinetics with PABA or 3-HβL as DHPS substrate. The format is biochemical, E. coli.
Method: (§1) DHFR would only reduce dihydropteroic acid, not 6-hydroxymethyl-7,8-dihydropterin, and as long as the DHFR rate was not slower than the DHPS rate, then the rate limiting step of DHPS is represented by the decrease in absorbance at 340 nm overtime.
(§2) HPPK, DHPS, DHFR and all their associated cosubstrates (ATP, PABA, NADPH) were combined in suitable buffer conditions (pH=7.5) and the optical absorbance at 340 nm was measured over time (see e.g., FIG. 21A).
HPPK/DHPS/DHFR Steady State Kinetics
Stock solutions of all reagents were made using 100 mM Tris buffer (pH=7.5) and stored in fractions in a −80° C. freezer until use (see e.g., TABLE 5).
An assay stock solution containing everything except the enzymes was made and 142.5 μL was distributed to each well (6 total) on a quartz 96-well plate that had been flushed with argon. To each of the first three wells was then added 7.5 μL of the enzyme solution containing HPPK/DHPS/DHFR, and to each of the last 3 wells was added 7.5 μL of 100 mM Tris-buffer. The 96-well plate was put into a UV/Vis plate reader and incubated at 37° C. while the optical absorbance at nm was read every 10 s for 1 h. The apparent reaction rate for absorbance decrease was measured from between 0-5 min. Each well was combined with their triplicate partners and the solutions were centrifuge filtered through a molecular weight cutoff (MWCO) to remove any enzymes. The solutions then run on an LCMS with single ion monitoring methods to detect the various oxidation states of products.
HPPK/DHPS/DHFR Steady State Kinetics with a 3-HG3L as a Substrate Stock solutions of all reagents were made using 100 mM Tris buffer (pH=7.5) and stored in fractions in a −80° C. freezer until use (see e.g., TABLE 7).
An assay stock solution containing everything except the enzymes was made and 142.5 μL was distributed to each well (6 total) on a quartz 96-well plate that had been flushed with argon. To each of the first three wells was then added 7.5 μL of the enzyme solution containing HPPK/DHPS/DHFR, and to each of the last 3 wells was added 7.5 μL of 100 mM Tris-buffer. The 96-well plate was put into a UV/Vis plate reader and incubated at 37° C. while the optical absorbance at nm was read every 10 s for 1 h. The apparent reaction rate for absorbance decrease was measured from between 0-5 min. Each well was combined with 1-0 their triplicate partners and the solutions were centrifuge filtered through a molecular weight cutoff (MWCO) to remove any enzymes. The solutions then run on an LCMS with single ion monitoring methods to detect the various oxidation states of products.

Test [3] deals with T3, dihydropteroate synthase (DHPS). The experiment in a line: HPPK/DHPS/DHFR steady state kinetics inhibition assay (NADPH consumption, absorbance at 340 nm). The format is biochemical, E. coli.
Method: as §1, §2
HPPK/DHPS/DHFR Steady State Kinetics Inhibition
Stock solutions of all reagents were made using 100 mM Tris-buffer (pH=7.5) and stored in fractions in a −80° C. freezer until use (see e.g., TABLE 6).
An assay stock solution containing everything except the HPPK/DHPS/DHFR solution and the Tris buffer+Inhibitor was made and 88.5 μL was distributed to each well (in triplicate) of a quartz 96-well plate to be used. […] 7.5 μL of the enzyme solution containing HPPK/DHPS/DHFR was added to each well and the plate was put into a UV/Vis plate reader and incubated at 37° C. while the optical absorbance at 340 nm was read every 10 s for 1 h. The apparent reaction 1-9 rate for absorbance decrease was measured from between 0-5 min.
[4] abbreviates: ATC25922, 3.52 mg/mL in DMSO, 50 μL per well, 37° C., 18 h, read-out: Zone of Inhibition.
The mark [5] stands for this setting: ATC25922, 50 μL per well, 37° C., 18 h.

T2 sequence (P08192 whole entry): as the sequence (P08192 whole entry) above

As for `Cc1cc(NS(=O)(=O)c2ccc(N)cc2)no1` [sulfamethoxazole], the “Bacterial growth inhibition in agar diffusion (in words)” value (“Bacterial growth inhibition” below) with E. coli ATC 25922 (E. coli) was “clear zones of bacterial growth inhibition”. For the same molecule, the zone of inhibition at 3520 µg/mL with E. coli ATC 25922 (setting [4]) came to 23.2 mm. Also, in the test with E. coli ATC 25922 (setting [5]), the zone of inhibition at 15000 µg/mL came out at 25.9 mm.
In the case of `Nc1nc(N)c2nc(CNc3ccc(C4(O)CNC4=O)cc3)cnc2n1` (stereo not shown) [Compound 4.10, 3-(4-(((2,4-diaminopteridin-6-yl)methyl)amino)phenyl)-3-hydroxyazetidin-2-one], the “Inhibition of bacterial growth (in words)” value in the test on E. coli (serial dilution, compared with DMSO control) was “No significant inhibition of bacterial growth”. For the same molecule, on DHFS, the “3-HβL-DHFS covalent adducts by protein mass spectrometry (in words)” value was “no apparent peaks corresponding to DHFS+334 mass units; also recorded: no 3-HβL—DHFS adducts formed”. For the same molecule, in the test on E. coli ATC 25922 (E. coli), the “Bacterial growth inhibition” value is “no bacterial growth inhibition was observed; also recorded: no apparent effect on E. coli growth” and the “Synergistic effect in combination with sulfamethoxazole or trimethoprim (in words)” value was “No apparent synergistic effect”. For the same molecule, in the test with E. coli ATC 25922 (ATC25922, 18 h), the zone of inhibition at 3520 µg/mL came to 0 mm. Further, in test [1], the “Dose-dependent inhibition of DHFS (in words)” value is reported as “dose-dependent inhibitory response” and the “DHFS product detected by LCMS of the reaction mixtures” value was “no product detected”. Also, in test [1] (at higher (double digit micromolar) concentrations), the DHFS rate inhibition is about 100%.
As for `Nc1ccc(C(=O)O)cc1` [PABA, p-amino-benzoic acid, reference compound], the “Substrate of DHPS, rate as substrate (in words)” value in test [2] is on record as “faster”.
Regarding `COc1cc(Cc2cnc(N)nc2N)cc(OC)c1OC` [trimethoprim], the MIC in the test with E. coli (Escherichia coli, read-out: MIC (minimum inhibitory concentration)) was found to be 2 µM (≈ 0.581 µg/mL). For the same molecule, in the test on E. coli ATC 25922 (E. coli), the “Bacterial growth inhibition” value was “clear zones of bacterial growth inhibition”. Moreover, the zone of inhibition at 3520 µg/mL in the test on E. coli ATC 25922 (setting [4]) stood at 39.6 mm. The zone of inhibition at 15000 µg/mL with E. coli ATC 25922 (setting [5]) turned out to be 45.3 mm.
Take `Nc1ccc(C2(O)CNC2=O)cc1` (stereo not shown) [Compound 2.44, 3-(4-aminophenyl)-3-hydroxyazetidin-2-one]: the “Inhibition of DHPS (in words)” value in test [3] was “not an inhibitor of DHPS”. The “Substrate of DHPS, rate as substrate (in words)” value was “substrate of DHPS” in test [2], “substrate” in test [2] (listed as 3-(para-NH2-phenyl)-3-HβL) and “slower” in test [2] (listed as BVD-3-7).
With `Nc1ncc(CNc2ccc(C3(O)CNC3=O)cc2)c(N)n1` (stereo not shown) [Compound 4.6, 3-(4-(((2,4-diaminopyrimidin-5-yl)methyl)amino)phenyl)-3-hydroxyazetidin-2-one], the “Dose-dependent inhibition of DHFS (in words)” value in test [1] is recorded as “no apparent dose dependent inhibition of DHFS”.
As for `NCC(O)(C(=O)O)c1ccc(NCc2cnc3nc(N)nc(N)c3n2)cc1` (stereo not shown) [Compound 4.12, 3-amino-2-(4-(((2,4-diaminopteridin-6-yl)methyl)amino)phenyl)-2-hydroxypropanoic acid], the “DHFS product detected by LCMS of the reaction mixtures” value in test [1] is “still showed some product”.
